Measured values published in US20100130581A1, “COMPOUNDS AND METHODS FOR THE TREATMENT OF PAIN” (THE UNIVERSITY OF QUEENSLAND, priority 2006, published 2010).
Where a SMILES comes first, the peptide text is derived from it. [ ]: non-standard residue; d: D form. ξ: configuration not given here. ξAoc(2) = CCCCCCC(N)C(=O)O

Key:
[1] = Blood plasma concentration after oral gavage; assay type: in vivo, rat; settings: male rats
Description: In another experiment, Lac-endo was fed via oral gavage to male rats and the concentration of the compound in blood plasma measured over time. Sprague-dawley rats (average wt 300 g) were gavaged with 500 μL of a 20 mM Lac-endo or Endomorphin solution in water. Blood samples taken from the tail vein after 30, 60 and 90 min. The blood was centrifuged to remove red blood cells, and in a 100 μL sample of plasma was added to 300 μL of acetonitrile to precipitate proteins. The suspension was centrifuged a second time and the supernatant analysed by LC-MS.

Caco-2 cells = experiment: Caco-2 permeability study
Description: Approximately 1×10^6 cells/mL concentration of cells were seeded onto polycarbonate cell culture inserts (Transwell®; 0.45 μm×6.5 mm diameter). DMEM cell culture media was supplemented with 10% FBS, 1% L-glutamine, 1% nonessential amino acids and 1% 100 U/mL penicillin/streptomycin. The media was changed every other day (0.6 mL in the basolateral chamber and 0.1 mL to the apical chamber) and the monolayers were used between days 21-28. Transepithelial electrical resistance (TEER) of the monolayer was measured using the Millicell-ERS system (Millipore Corporation, Bedford, Mass.). C^14-mannitol permeability was used to monitor the integrity of the Caco-2 monolayers.
Prior to beginning the experiments, the monolayers were washed with pre-warmed HBSS-Hepes buffer, incubated for 30 min. At the start of the experiment the apical chamber was emptied and 100 μL of either the derivatised endomorphin or derivatised endomorphin analog solution was added. The permeability study was performed in triplicate at 37° C. shaking in a Heridolf Titramax shaking at 400 rpm. […] Permeability coefficients (Papp) were calculated from data generated by LC/MS quantitative analysis of all samples using a gradient HPLC system (Shimadzu LC-10AT system) coupled to a triple quadrupole mass spectrometer (PE Sciex API 3000) operating in SIM mode with positive ion electrospray. The mobile phase was a mixture of solvent A (0.1% formic acid in water) and solvent B (0.1% formic acid in 90% acetonitrile/water). A C18 column, 5 μM, 50×2.0 mm (Phenomex®) was used at a flow rate 0.3 mL/min with a gradient from 100% A to 90% B in 7 minutes, incorporating a splitter (1:10).
The permeability of the sugars themselves was also examined.

[2] = system: μ- and δ-opioid receptors; experiment: Cell based assay of cAMP inhibition in forskolin treated SH-SY5Y cells; settings: for Inhibit c-AMP (%): SH-SY5Y cell line, normalised to the % of cAMP inhibition seen by native endomorphin-1
Description: SH-SY5Y cells endogenously expressing μ- and δ-opioid receptors were cultured (100 μl) in a 96 well-plate and incubated (usually overnight) until 80% confluent. Once cells were ready for assay, Endo-1, Endo-2 and derivatives/analogs were diluted in DMEM culture medium containing 30 μM forskolin. The diluted derivatised endomorphins or derivatised endomorphin analogs were then applied to separate wells for agonist studies and co-incubated for antagonist studies. Cells were incubated with derivatised endomorphins or derivatised endomorphin analogs at 37° C. for 30 minutes, medium was aspirated and cells were lysed using lysis buffer from a cAMP Biotrak EIA kit (Amersham, Buckinghamshire, UK). An anti-cAMP antibody was added to the lysate, and the mixture incubated at 4° C. for 2 hours followed by the addition of a cAMP peroxidase conjugate, and incubated at 4° C. for a further hour. A 3,3′5,5′-tetramethylbenzidine (TMB) substrate provided by the Biotrak EIA kit was then incubated with cell lysate for 1 hour and finally 1 […] was added to facilitate a colour change, which is proportional to the amount of cAMP captured. A cAMP standard curve from 0 to 3200 fmol was also generated concurrently. Plates were then read by a plate reader at 450 nm and compared back to the cAMP standard curve. All data are compared to the maximum cAMP response to forskolin and are represented as the mean+/−standard error of three experiments performed in triplicate. All data are plotted using PRISM program (GraphPad, San Diego, Calif.) (see FIGS. 2a and 2b).

[3] = Enzymatic stability study in homogenized Caco-2 cells; assay type: in vitro ADME; settings: human, pH 7.4; Caco-2 cell homogenate, 37° C., 100 μM
Description: (§1) Approximately 1×10^5 cells/mL concentration of cells were seeded onto the 96 well plate. […] The media was changed every other day. 21-28 days old cells were used for the experiments. the media was removed from the wells and each well washed with 100 μL 0.2% EDTA solution followed by washing three times with Hanks' balanced salt solution (HBSS) containing 25 mM Hepes (pH 7.4). Finally, 100 μL of this buffer was placed in each well and the plate cooled in ice. The monolayer of cells in each well was then disrupted by 2×1 second pulses with a Sonics Vibracell ultrasonic processor set at an amplitude of 30. The cell debris was then removed by centrifugation of the plate at 2000 rpm for 5 min. 80 μL cell homogenate supernatant of each well was then transferred to a clean 96 well plate, and 20 μL of HBSS-Hepes was added. Three of the wells' contents were set aside and assayed for total protein content using the Lowry assay. The compounds to be tested were dissolved in HBSS-Hepes buffer to a concentration of 200 μM.
(§2) This assay was performed at 37° C. […] The stability assay on each compound was conducted in triplicate and the concentrations averaged for each time point.

[4] = In vivo biodistribution of 3H-labelled peptide, oral; parameters: species or system rat; settings: rats, oral administration
Description: After 15, 30 and 60 minutes, 5 rats were sacrificed and the brain, liver, blood, kidneys, stomach, spleen, small intestine and large intestine were removed following oral administration. The organs were subsequently homogenised in buffer and a sample removed and placed in tissue solubiliser for 3 days. After this time a small sample was removed and treated with bleach over night to remove any colour from the solution and the resulting sample dissolved in scintillation fluid and the radioactivity measured by liquid scintillation.

μ-opioid receptor = molecular target: T1, μ-opioid receptor (Homo sapiens, UniProt P35372); experiment: Whole cell-based binding assay, displacement of 3H-DAMGO
T1 construct: SH-SY5Y cells endogenously expressing μ- and δ-opioid receptors; endogenous in cells; host or cells: SH-SY5Y cells
T1 sequence (P35372 whole entry): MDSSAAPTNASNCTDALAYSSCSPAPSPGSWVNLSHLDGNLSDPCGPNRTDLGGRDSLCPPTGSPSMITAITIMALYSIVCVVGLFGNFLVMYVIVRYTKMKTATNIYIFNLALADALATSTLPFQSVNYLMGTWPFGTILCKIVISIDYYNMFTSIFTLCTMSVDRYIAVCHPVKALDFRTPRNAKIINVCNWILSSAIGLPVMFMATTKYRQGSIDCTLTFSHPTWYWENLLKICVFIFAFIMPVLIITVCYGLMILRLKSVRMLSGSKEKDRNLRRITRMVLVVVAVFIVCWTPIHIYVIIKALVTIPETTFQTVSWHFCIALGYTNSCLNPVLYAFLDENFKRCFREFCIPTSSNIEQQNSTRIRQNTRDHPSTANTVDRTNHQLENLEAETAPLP
Description: Media was removed and cells were washed with PBS before pre-incubation in 300 μL of binding buffer. Binding studies were performed with 100 μL of appropriate concentrations of ^3H-labeled DAMGO (a selective μ-opioid receptor agonist) and 100 μL of competitor or blank in binding buffer at 37° C. for 60 min. Competition binding experiments were performed using […] of ^3H-labelled DAMGO in the absence or presence of increasing concentrations of unlabeled derivatised endomorphins or derivatised endomorphin analogs. A 1 μM excess of unlabelled DAMGO was used to determine non-specific binding. Following incubation, the cells were washed with PBS and recovered from culture plates using 500 μL of […] before transfer to scintillation vials. Liquid scintillation cocktail (Ultima Gold, Packard, Meriden, USA) was added to these vials for counting in a liquid scintillation analyser. Data are expressed as the mean±SEM of % specific binding of triplicate determinations performed on at least three independent plates of cells. Data were plotted using the one-site competition functions of the PRISM program (Graphpad Inc., San Diego, USA) (see FIGS. 1a, 1b and 7).

[5] = In vivo biodistribution of 3H-labelled peptide, intravenous; parameters: species or system rat; settings: rats, i.v.
Description: FIG. 5(a)-(c) are graphical representations showing in vivo bio-distribution of 1 in rats. […] After 15, 30 and 60 minutes, 5 rats were sacrificed and the brain FIG. 5(a), liver FIG. 5(b) and blood FIG. 5(c) of each rat were removed following intravenous administration. The organs were subsequently homogenised in buffer and a sample removed and placed in tissue solubiliser for 3 days. After this time a small sample was removed and treated with bleach over night to remove any colour from the solution and the resulting sample dissolved in scintillation fluid and the radioactivity measured by liquid scintillation. […] The apparent increase in blood levels of the parent peptide after 60 minutes is likely due to the breakdown of the compound and release of the radiolabeled acetate into the blood stream.

[6] = system: homogenate of Caco-2 cells; experiment: Enzymatic stability study in homogenized Caco-2 cells; assay type: in vitro ADME; settings: Caco-2 cell line; graded by number of ♦ (up to 5), key not given
Description: as §1, §2

Plasma stability assay = assay type: in vitro ADME; settings: male, human, plasma at 37° C.
Description: To measure the enzymatic stability of endomorphin-1 analogs in plasma, blood was taken from a healthy volunteer and the blood was centrifuged at 1700 rpm for 30 minutes to remove blood cells. The plasma was placed into a water bath heated at 37° C. and Endomorphin-1 and analog was added to give final concentrations of 0.7 mg/mL. Samples were incubated for varying time periods between 0 and 180 minutes. 50 μL of sample was taken at each time-point and 75 μL of acetonitrile was added to quench any enzyme activity. The samples were then placed on ice and upon completion of the assay, all samples were centrifuged at 9000 rpm for 3 minutes to remove all precipitated plasma proteins. The amount of intact peptide remaining in the supernatent of each sample was determined using RP HPLC by measuring the area under the curve of the peak at the appropriate retention time compared to a standard curve of concentration for each peptide (see FIG. 8).

NC(=O)[C@H](Cc1ccccc1)NC(=O)[C@H](Cc1c[nH]c2ccccc12)NC(=O)[C@@H]1CCCN1C(=O)[C@H](Cc1ccc(O)cc1)NC(=O)CCC(=O)N[C@@H]1O[C@H](CO)[C@@H](O[C@@H]2O[C@H](CO)[C@H](O)[C@H](O)[C@H]2O)[C@H](O)[C@H]1O [Compound 12]
Tmax ([1]; Sprague-Dawley, rat, plasma, 10 µmol/rat, read-out: time of highest recorded concentration in blood (converted)): 60 min
absorption across the GI tract, in words ([1]; 500 μL of 20 mM solution): significant absorption of the compound across the GI tract
absorption of Lac-endo in presence of galactose (Caco-2 cells; Caco-2 monolayers, 20 mM galactose): some inhibition of absorption but less than lactose
absorption of Lac-endo in presence of glucose (Caco-2 cells; Caco-2 monolayers, 20 mM glucose): doesn't inhibit the absorption
absorption of Lac-endo in presence of lactose (Caco-2 cells; Caco-2 monolayers, 20 mM lactose): severely inhibits the absorption

CCCCCCC(N)C(=O)N[C@@H](Cc1ccc(O)cc1)C(=O)N1CCC[C@H]1C(=O)N[C@@H](Cc1c[nH]c2ccccc12)C(=O)N[C@@H](Cc1ccccc1)C(N)=O (stereo partly shown) [Compound 1] (H-[ξAoc(2)]YPWF-NH2)
Inhibit c-AMP (%) [2]: 97%
half-life [3]: 25.5 min
delivery to the brain, in words [4]: evidence of delivery of the peptide to the brain
increase in serum levels compared to the native peptide ([4]; over the time of the experiment): 6 fold
Ki (μ-opioid receptor): 2.45 nM
Ki / binding affinity, in words (μ-opioid receptor; displacement of 3H-DAMGO, FIG. 1): low nanomolar range
apparent permeability (Papp), in words (Caco-2 cells; Caco-2 cell monolayers, compared to parent peptide): significantly improved apparent permeability compared to the parent peptide
accumulation in the liver, in words [5]: accumulate less in the liver than the parent peptide
label appearing in the brain ([5]; after 15 minutes): > 10%

NC(=O)[C@H]1O[C@@H](NC(=O)[C@H](Cc2ccccc2)NC(=O)[C@H](Cc2c[nH]c3ccccc23)NC(=O)[C@@H]2CCCN2C(=O)[C@@H](N)Cc2ccc(O)cc2)[C@H](O)[C@@H](O)[C@@H]1O [Compound 18]
Enzymatic stability 2 h [6]: ♦
Permeability (Caco-2 cells; Caco-2 cell line, graded by number of ♦ (up to 5), key not given): ♦

Cc1cc(O)cc(C)c1C[C@H](N)C(=O)N1CCC[C@H]1C(=O)N[C@@H](Cc1c[nH]c2ccccc12)C(=O)N[C@@H](Cc1ccccc1)C(N)=O [(Dmt^1)Endo, reference compound]
IC50 ([2]; Efficacy SH-SY5Y cell line): 0.156 nM
Inhibit c-AMP (%) [2]: 160%
Enzymatic stability 2 h [6]: ♦
half-life at 100 μM [3]: 8.98 min
Ki (μ-opioid receptor): 0.058 nM
half-life at 0.7 mg/mL (Plasma stability assay): 4.18 min
